Values of other authors in patent US20140080864A1, “PHARMACETUICAL COMPOSITION COMPRISING DROTAVERINE” (CHINOIN PRIVATE CO LTD, priority 2011, published 2014).
Counter-ions that a name gives are not always drawn.

Conditions: oral dose, healthy individuals; mean SD

## CCOc1ccc(/C=C2\NCCc3cc(OCC)c(OCC)cc32)cc1OCC [drotaverine hydrochloride, 1-(3,4-diethoxybenzylidene)-6,7-diethoxy-1,2,3,4-tetrahydroisoquinoine]
  absolute bioavailability (mean): 58.2%
